The source made the active and inactive calls. The calls are words filed in the database; no cut-off is given here.
Legend:
[1] = test system: Malassezia pachydermatis; experiment: Antimicrobial activity against Malassezia pachydermatis assessed as inhibition of visual microbial growth incubated for 48 to 72 hrs at 28 degC; assay type: functional
[2] = test system: Klebsiella pneumoniae; experiment: Antimicrobial activity against Klebsiella pneumoniae MTCC 109 assessed as inhibition of visual microbial growth incubated for 24 hrs at 37 degC; assay type: functional; settings: MTCC 109, 24 h
[3] = test system: Micrococcus luteus; experiment: Antimicrobial activity against Micrococcus luteus MTCC 106 assessed as inhibition of visual microbial growth incubated for 24 hrs at 37 degC; assay type: functional; settings: MTCC 106, 24 h
[4] = test system: Klebsiella aerogenes; experiment: Antimicrobial activity against Enterobacter aerogenes MTCC 111 assessed as inhibition of visual microbial growth incubated for 24 hrs at 37 degC; assay type: functional
[5] = test system: Proteus vulgaris; experiment: Antimicrobial activity against Proteus vulgaris MTCC 1771 assessed as inhibition of visual microbial growth incubated for 24 hrs at 37 degC; assay type: functional
[6] = test system: Shigella flexneri; experiment: Antimicrobial activity against Shigella flexneri MTCC 1457 assessed as inhibition of visual microbial growth incubated for 24 hrs at 37 degC; assay type: functional
[7] = test system: Candida albicans; experiment: Antimicrobial activity against Candida albicans MTCC 227 assessed as inhibition of visual microbial growth incubated for 48 to 72 hrs at 28 degC; assay type: functional
[8] = test system: Staphylococcus aureus; experiment: Antimicrobial activity against methicillin-resistant Staphylococcus aureus assessed as inhibition of visual microbial growth incubated for 24 hrs at 37 degC; assay type: functional
[9] = test system: Staphylococcus aureus; experiment: Antimicrobial activity against Staphylococcus aureus MTCC 96 assessed as inhibition of visual microbial growth incubated for 24 hrs at 37 degC; assay type: functional; settings: MTCC 96, 24 h
[10] = test system: Salmonella typhimurium; experiment: Antimicrobial activity against Salmonella typhimurium MTCC 1251 assessed as inhibition of visual microbial growth incubated for 24 hrs at 37 degC; assay type: functional, Salmonella enterica subsp. enterica serovar Typhimurium; settings: Salmonella enterica, MTCC 1251, 24 h

Compound	MIC [1]	MIC [2]	MIC [3]	MIC ([4]; MTCC 111, 24 h)	MIC ([5]; MTCC 1771, 24 h)	MIC ([6]; MTCC 1457, 24 h)	MIC [7]	MIC [8]	MIC [9]	MIC [10]	MIC [5]	MIC [6]	MIC [4]
Clc1ccc(-c2csc(N3N=C(c4cccs4)CC3c3ccc4c(c3)OCO4)n2)cc1 (stereo not given)	500 mg/L	62.5 mg/L	250 mg/L	250 mg/L	125 mg/L	250 mg/L	500 mg/L	250 mg/L	125 mg/L	250 mg/L	–	–	–
O=[N+]([O-])c1ccc(-c2csc(N3N=C(c4cccs4)CC3c3ccc4c(c3)OCO4)n2)cc1 (stereo not given)	500 mg/L	500 mg/L	250 mg/L	500 mg/L	–	500 mg/L	250 mg/L	inactive	500 mg/L	500 mg/L	inactive	–	–
c1ccc(-c2csc(N3N=C(c4cccs4)CC3c3ccc4c(c3)OCO4)n2)cc1 (stereo not given)	500 mg/L	500 mg/L	250 mg/L	250 mg/L	500 mg/L	500 mg/L	250 mg/L	500 mg/L	500 mg/L	250 mg/L	–	–	–
Brc1cc2c(cc1C1CC(c3cccs3)=NN1c1nc(-c3ccccc3)cs1)OCO2 (stereo not given)	125 mg/L	250 mg/L	125 mg/L	62.5 mg/L	62.5 mg/L	250 mg/L	125 mg/L	250 mg/L	125 mg/L	125 mg/L	–	–	–
N#Cc1cccc(-c2csc(N3N=C(c4cccs4)CC3c3ccc4c(c3)OCO4)n2)c1 (stereo not given)	250 mg/L	62.5 mg/L	31.2 mg/L	125 mg/L	250 mg/L	125 mg/L	125 mg/L	62.5 mg/L	31.2 mg/L	62.5 mg/L	–	–	–
Fc1ccccc1-c1csc(N2N=C(c3cccs3)CC2c2ccc3c(c2)OCO3)n1 (stereo not given)	500 mg/L	500 mg/L	125 mg/L	500 mg/L	500 mg/L	–	500 mg/L	250 mg/L	250 mg/L	250 mg/L	–	inactive	–
N#Cc1ccc(-c2csc(N3N=C(c4cccs4)CC3c3ccc4c(c3)OCO4)n2)cc1 (stereo not given)	500 mg/L	250 mg/L	125 mg/L	250 mg/L	125 mg/L	250 mg/L	125 mg/L	250 mg/L	125 mg/L	125 mg/L	–	–	–
Cc1ccc(-c2csc(N3N=C(c4cccs4)CC3c3ccc4c(c3)OCO4)n2)cc1 (stereo not given)	500 mg/L	125 mg/L	500 mg/L	–	500 mg/L	250 mg/L	125 mg/L	250 mg/L	250 mg/L	125 mg/L	–	–	inactive
Clc1ccc(-c2csc(N3N=C(c4cccs4)CC3c3cc4c(cc3Br)OCO4)n2)cc1 (stereo not given)	125 mg/L	31.2 mg/L	31.2 mg/L	125 mg/L	250 mg/L	125 mg/L	125 mg/L	62.5 mg/L	125 mg/L	62.5 mg/L	–	–	–
Fc1ccccc1-c1csc(N2N=C(c3cccs3)CC2c2cc3c(cc2Br)OCO3)n1 (stereo not given)	500 mg/L	250 mg/L	125 mg/L	250 mg/L	500 mg/L	250 mg/L	125 mg/L	250 mg/L	250 mg/L	125 mg/L	–	–	–
N#Cc1ccc(-c2csc(N3N=C(c4cccs4)CC3c3cc4c(cc3Br)OCO4)n2)cc1 (stereo not given)	125 mg/L	125 mg/L	62.5 mg/L	125 mg/L	62.5 mg/L	125 mg/L	125 mg/L	125 mg/L	62.5 mg/L	125 mg/L	–	–	–
GENTAMICIN	–	–	–	–	–	–	–	–	–	–	32 mg/L	–	–
CC(=O)N1CCN(c2ccc(OCC3COC(Cn4ccnc4)(c4ccc(Cl)cc4Cl)O3)cc2)CC1 (stereo not given) [KETOCONAZOLE]	–	–	–	–	–	–	25 mg/L	–	–	–	–	–	–
Fc1ccc(-c2csc(N3N=C(c4cccs4)CC3c3cc4c(cc3Br)OCO4)n2)cc1 (stereo not given)	500 mg/L	500 mg/L	125 mg/L	250 mg/L	–	250 mg/L	250 mg/L	inactive	250 mg/L	250 mg/L	inactive	–	–
Fc1ccc(-c2csc(N3N=C(c4cccs4)CC3c3ccc4c(c3)OCO4)n2)cc1 (stereo not given)	250 mg/L	250 mg/L	250 mg/L	125 mg/L	500 mg/L	250 mg/L	125 mg/L	250 mg/L	500 mg/L	500 mg/L	–	–	–
N#Cc1cccc(-c2csc(N3N=C(c4cccs4)CC3c3cc4c(cc3Br)OCO4)n2)c1 (stereo not given)	125 mg/L	62.5 mg/L	31.2 mg/L	62.5 mg/L	31.2 mg/L	62.5 mg/L	62.5 mg/L	62.5 mg/L	31.2 mg/L	31.2 mg/L	–	–	–
Fc1cc(Cl)ccc1-c1csc(N2N=C(c3cccs3)CC2c2ccc3c(c2)OCO3)n1 (stereo not given)	250 mg/L	125 mg/L	250 mg/L	250 mg/L	500 mg/L	125 mg/L	250 mg/L	125 mg/L	250 mg/L	125 mg/L	–	–	–
OC(Cn1cncn1)(Cn1cncn1)c1ccc(F)cc1F [FLUCONAZOLE]	24 mg/L	–	–	–	–	–	–	–	–	–	–	–	–
Fc1cc(-c2csc(N3N=C(c4cccs4)CC3c3ccc4c(c3)OCO4)n2)ccc1Cl (stereo not given)	500 mg/L	250 mg/L	62.5 mg/L	125 mg/L	500 mg/L	125 mg/L	125 mg/L	250 mg/L	500 mg/L	500 mg/L	–	–	–
O=[N+]([O-])c1ccc(-c2csc(N3N=C(c4cccs4)CC3c3cc4c(cc3Br)OCO4)n2)cc1 (stereo not given)	500 mg/L	250 mg/L	125 mg/L	250 mg/L	125 mg/L	250 mg/L	125 mg/L	62.5 mg/L	250 mg/L	62.5 mg/L	–	–	–
CN[C@@H]1[C@H](O[C@H]2[C@H](O[C@H]3[C@H](O)[C@@H](O)[C@H](N=C(N)N)[C@@H](O)[C@@H]3N=C(N)N)O[C@@H](C)[C@]2(O)C=O)O[C@@H](CO)[C@H](O)[C@H]1O [STREPTOMYCIN]	–	6.25 mg/L	6.25 mg/L	25 mg/L	–	6.25 mg/L	–	6.25 mg/L	6.25 mg/L	30 mg/L	–	–	–
Fc1cc(Cl)ccc1-c1csc(N2N=C(c3cccs3)CC2c2cc3c(cc2Br)OCO3)n1 (stereo not given)	125 mg/L	62.5 mg/L	125 mg/L	125 mg/L	62.5 mg/L	62.5 mg/L	62.5 mg/L	62.5 mg/L	125 mg/L	31.2 mg/L	–	–	–

Source: ChEMBL document CHEMBL3588812, “Thiophene and benzodioxole appended thiazolyl-pyrazoline compounds: Microwave assisted synthesis, antimicrobial and molecular docking studies” (2015)
